Our source for the IC50 values is patent publication US20230026696A1, “TRPV4 RECEPTOR LIGANDS” (UNIVERSITY OF UTAH RESEARCH FOUNDATION, priority 2019, published 2023).

Counter-ions that a name gives are not always drawn. A value given as a limit tells only on which side of the number the result lay.

For the assay, the target named is T1, human TRPV4 (Homo sapiens, UniProt Q9HBA0).
T1 construct: expressed in transfected cells
T1 sequence (Q9HBA0 whole entry): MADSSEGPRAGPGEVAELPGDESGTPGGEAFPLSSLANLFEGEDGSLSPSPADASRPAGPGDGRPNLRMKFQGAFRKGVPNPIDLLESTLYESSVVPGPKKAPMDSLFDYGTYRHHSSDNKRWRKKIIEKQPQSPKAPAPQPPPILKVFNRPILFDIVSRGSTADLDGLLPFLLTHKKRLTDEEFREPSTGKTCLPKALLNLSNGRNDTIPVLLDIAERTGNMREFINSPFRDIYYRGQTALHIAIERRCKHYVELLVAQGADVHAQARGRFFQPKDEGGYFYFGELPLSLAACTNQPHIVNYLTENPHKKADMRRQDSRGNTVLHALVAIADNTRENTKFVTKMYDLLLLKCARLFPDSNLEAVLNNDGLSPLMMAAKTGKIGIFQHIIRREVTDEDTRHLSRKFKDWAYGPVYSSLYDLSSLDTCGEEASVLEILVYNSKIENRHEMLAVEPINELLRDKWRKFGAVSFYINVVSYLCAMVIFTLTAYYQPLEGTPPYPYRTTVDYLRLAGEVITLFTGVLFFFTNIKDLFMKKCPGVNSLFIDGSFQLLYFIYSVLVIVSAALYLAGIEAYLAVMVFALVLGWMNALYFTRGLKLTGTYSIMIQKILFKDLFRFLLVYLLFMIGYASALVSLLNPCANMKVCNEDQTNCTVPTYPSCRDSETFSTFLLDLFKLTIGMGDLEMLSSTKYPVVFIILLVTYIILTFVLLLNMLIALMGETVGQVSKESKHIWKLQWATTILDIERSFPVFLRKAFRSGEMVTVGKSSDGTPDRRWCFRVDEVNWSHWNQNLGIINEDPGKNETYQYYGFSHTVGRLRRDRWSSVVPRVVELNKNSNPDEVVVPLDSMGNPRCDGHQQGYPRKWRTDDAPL
The experiment in a line: Fluorometric cell-based Ca2+ flux assay, HEK-293 cells stably overexpressing human TRPV4. Particulars: HEK-293 stably overexpressing human TRPV4; agonist GSK1016790A 30 nM. As for the experimental part: Fluorometric cell-based Ca^2+ flux assays were performed to assess TRPV4 antagonist activity and determine potency (IC50 values) in human embryonic kidney-293 cells (HEK-293) that stably overexpress human TRPV4. The assays were performed according to methods described in: Deering-Rice, C. E., Johansen, M. E., Roberts, J. K., Thomas, K. C., Romero, E. G., Lee, J., Yost, G. S., Veranth, J. M., and Reilly, C. A. (2012), Mol. Pharmacol. 81(3), 411-419; Shapiro, D., Deering-Rice, C. E., Romero, E. G., Hughen, R. W., Light, A. R., Veranth, J. M., and Reilly, C. A. (2013), Chem Res. Toxicol., 26, 750-758; and Deering-Rice, C. E., Mitchell, V. K., Romero, E. G., Abdel Aziz, M. H., and Reilly, C. A. (2014), Pharmacol. Res. & Perspectives. 2(5), 1-10.
The HEK-293 cells stably overexpressing human TRPV4 were grown to confluence in 2% (w/v) gelatin-coated 96-well plates in DMEM:F12 media supplemented with 5% fetal bovine serum, 1× penicillin/streptomycin (Invitrogen) and Geneticin (300 μg/mL).
The HEK-293 cells were prepared for assay by replacing the growth media with a 1:1 solution of LHC-9 and Fluo 4-Direct (Invitrogen) reagent containing Fluo 4-AM, pluronic F-127, probenecid, and a proprietary quencher dye. The cells were then incubated at 37° C. for 1 h in a cell culture incubator. The cells were subsequently washed by replacing the loading solution with LHC-9 containing 1 mM water-soluble probenecid (Invitrogen), 750 μM Trypan Red (ATT Bioquest), and a test compound (at various concentrations). The cells were incubated for an additional 30 minutes at 37° C. to allow for Fluo 4-AM cleavage and activation, as well as equilibration to both the test compounds and Fluo 4.
An agonist treatment solution (90 nM GSK1016790A, a potent activator of TRPV4) was prepared in LHC9 at 3× concentration and 25 μL was added to 50 μL of media on the cells in 96 well plates, providing a final concentration of 30 nM. Changes in cellular fluorescence were monitored with a BMG Labtech NOVOStar fluorescence plate reader for 1 minute at 37° C. Data were quantified as the maximum rate of change in fluorescence intensity (max ΔF/s), corrected for media only treatment (negative control), and represented as the percentage of response relative to the no antagonist control. A minimum of three replicates were used for each treatment condition, with a minimum of 8 concentrations to derive the IC50 values reported for each antagonist. The IC50 values for each antagonist, which are shown in Table 4 below, were calculated according to methods described in the assays were performed according to methods described in: Deering-Rice, C. E., Johansen, M. E., Roberts, J. K., Thomas, K. C., Romero, E. G., Lee, J., Yost, G. S., Veranth, J. M., and Reilly, C. A. (2012), Mol. Pharmacol. 81(3), 411-419; Shapiro, D., Deering-Rice, C. E., Romero, E. G., Hughen, R. W., Light, A. R., Veranth, J. M., and Reilly, C. A. (2013), Chem Res. Toxicol., 26, 750-758; and Deering-Rice, C. E., Mitchell, V. K., Romero, E. G., Abdel Aziz, M. H., and Reilly, C. A. (2014), Pharmacol. Res. & Perspectives. 2(5), 1-10.
For orientation: A change in cytosolic calcium serves as a functional read-out for many receptors and channels.
Molecule `CC(=O)NC1(COc2ccc(C#N)c(F)c2)CN(S(=O)(=O)c2ccc(Cl)cc2Cl)C1` [Compound 53, N-(3-((4-Cyano-3-fluorophenoxy)methyl)-1-((2,4-dichlorophenyl)sulfonyl)azetidin-3-yl)acetamide] displayed an IC50 of 88 nM. As for `CN(C)C1(COc2ccc(C#N)c(F)c2)CN(S(=O)(=O)c2ccc(Cl)cc2Cl)C1` [Compound 54, 4-((1-((2,4-Dichlorophenyl)sulfonyl)-3-(dimethylamino)azetidin-3-yl)methoxy)-2-fluorobenzonitrile], the figure is 1240 nM; as for `N#Cc1ccc(OCC2(NC(=O)CN)CN(S(=O)(=O)c3ccc(Cl)cc3Cl)C2)cc1F` [Compound 55, 2-Amino-N-(3-((4-cyano-3-fluorophenoxy)methyl)-1-((2,4-dichlorophenyl)sulfonyl)azetidin-3-yl)acetamide], 23 nM. As for `N#Cc1ccc(OCC2(NC(=O)CO)CN(S(=O)(=O)c3ccc(Cl)cc3Cl)C2)cc1F` [Compound 56, N-(3-((4-Cyano-3-fluorophenoxy)methyl)-1-((2,4-dichlorophenyl)sulfonyl)azetidin-3-yl)-2-hydroxyacetamide], the figure is 100 nM; as for `N#Cc1ccc(OCC2(NS(=O)(=O)CCN)CN(S(=O)(=O)c3ccc(Cl)cc3Cl)C2)cc1F` [Compound 57, 2-Amino-N-(3-((4-cyano-3-fluorophenoxy)methyl)-1-((2,4-dichlorophenyl)sulfonyl)azetidin-3-yl)ethane-1-sulfonamide hydrochloride], 53 nM.

`N#Cc1ccc(OCC2(CO)CN(S(=O)(=O)c3ccccc3Cl)C2)cc1F` [Compound 58, 4-((1-((2-Chlorophenyl)sulfonyl)-3-(hydroxymethyl)azetidin-3-yl)methoxy)-2-fluorobenzonitrile] yielded an IC50 of 413 nM.

`N#Cc1ccc(OCC2(CO)CN(S(=O)(=O)c3ccc(C(F)(F)F)cc3Cl)C2)cc1F` [Compound 59, 4-((1-((2-Chloro-4-(trifluoromethyl)phenyl)sulfonyl)-3-(hydroxymethyl)azetidin-3-yl)methoxy)-2-fluorobenzonitrile] showed an IC50 of 481 nM. Consider `N#Cc1ccc(S(=O)(=O)N2CC(CO)(COc3ccc(C#N)c(F)c3)C2)c(Cl)c1` [Compound 60, 4-((1-((2-Chloro-4-cyanophenyl)sulfonyl)-3-(hydroxymethyl)azetidin-3-yl)methoxy)-2-fluorobenzonitrile], for which the IC50 came to 54 nM. As for `Cc1ccc(S(=O)(=O)N2CC(CO)(COc3ccc(C#N)c(F)c3)C2)c(C)c1` [Compound 62, 4-((1-((2,4-Dimethylphenyl)sulfonyl)-3-(hydroxymethyl)azetidin-3-yl)methoxy)-2-fluorobenzonitrile], the figure is 472 nM; as for `COC(=O)c1ccc(S(=O)(=O)N2CC(CO)(COc3ccc(C#N)c(F)c3)C2)cc1` [Compound 63, Methyl 4-((3-((4-cyano-3-fluorophenoxy)methyl)-3-(hydroxymethyl)azetidin-1-yl)sulfonyl)benzoate], 5000 nM. As for `N#Cc1ccc(OCC2(CO)CN(S(=O)(=O)c3ccc(C(F)(F)F)nc3)C2)cc1F` [Compound 64, 2-Fluoro-4-((3-(hydroxymethyl)-1-((6-(trifluoromethyl)pyridin-3-yl)sulfonyl)azetidin-3-yl)methoxy)benzonitrile], the figure is 5000 nM. As for `Cc1nc(C)c(S(=O)(=O)N2CC(CO)(COc3ccc(C#N)c(F)c3)C2)s1` [Compound 65, 4-((1-((2,4-Dimethylthiazol-5-yl)sulfonyl)-3-(hydroxymethyl)azetidin-3-yl)methoxy)-2-fluorobenzonitrile], the IC50 turned out to be 5000 nM. As for `Cc1nn(C)cc1S(=O)(=O)N1CC(CO)(COc2ccc(C#N)c(F)c2)C1` [Compound 66, 4-((1-((1,3-Dimethyl-1H-pyrazol-4-yl)sulfonyl)-3-(hydroxymethyl)azetidin-3-yl)methoxy)-2-fluorobenzonitrile], the figure is 10000 nM; as for `N#Cc1ccc(OCC2(CO)CN(S(=O)(=O)c3ccc(F)c(Cl)c3)C2)cc1F` [Compound 67, 4-((1-((3-chloro-4-fluorophenyl)sulfonyl)-3-(hydroxymethyl)azetidin-3-yl)methoxy)-2-fluorobenzonitrile], 5000 nM.

Molecule `N#Cc1ccc(OCC2(CO)CN(S(=O)(=O)c3cc(Cl)cc(Cl)c3)C2)cc1F` [Compound 68, 4-((1-((3,5-Dichlorophenyl)sulfonyl)-3-(hydroxymethyl)azetidin-3-yl)methoxy)-2-fluorobenzonitrile] gave an IC50 of 5000 nM. As for `CS(=O)(=O)c1ccc(S(=O)(=O)N2CC(CO)(COc3ccc(C#N)c(F)c3)C2)cc1` [Compound 69, 2-Fluoro-4-((3-(hydroxymethyl)-1-((4-(methylsulfonyl)phenyl)sulfonyl)azetidin-3-yl)methoxy)benzonitrile], the figure is 5000 nM; as for `N#Cc1ccc(OCC2(CO)CN(S(=O)(=O)c3cccc(C(F)(F)F)c3)C2)cc1F` [Compound 70, 2-Fluoro-4-((3-(hydroxymethyl)-1-((3-(trifluoromethyl)phenyl)sulfonyl)azetidin-3-yl)methoxy)benzonitrile], 5000 nM. The molecule `N#Cc1ccc(OCC2(CO)CN(S(=O)(=O)c3ccccc3)C2)cc1F` [Compound 72, 2-Fluoro-4-((3-(hydroxymethyl)-1-(phenylsulfonyl)azetidin-3-yl)methoxy)benzonitrile] came in with a concentration for half-maximal inhibition (IC50) of 5000 nM. As for `Cc1ccc(S(=O)(=O)N2CC(CO)(COc3ccc(C#N)c(F)c3)C2)cc1` [Compound 73, 2-Fluoro-4-((3-(hydroxymethyl)-1-tosylazetidin-3-yl)methoxy)benzonitrile], the figure is 3000 nM; as for `Cc1cc(Cl)ccc1S(=O)(=O)N1CC(CO)(COc2ccc(C#N)c(F)c2)C1` [Compound 74, 4-((1-((4-Chloro-2-methylphenyl)sulfonyl)-3-(hydroxymethyl)azetidin-3-yl)methoxy)-2-fluorobenzonitrile], 520 nM. As for `N#Cc1ccc(OCC2(CO)CN(S(=O)(=O)c3c(Cl)cccc3Cl)C2)cc1F` [Compound 75, 4-((1-((2,6-Dichlorophenyl)sulfonyl)-3-(hydroxymethyl)azetidin-3-yl)methoxy)-2-fluorobenzonitrile], the figure is over 1300 nM; as for `Cc1ccccc1S(=O)(=O)N1CC(CO)(COc2ccc(C#N)c(F)c2)C1` [Compound 76, 2-Fluoro-4-((3-(hydroxymethyl)-1-(o-tolylsulfonyl)azetidin-3-yl)methoxy)benzonitrile], over 2500 nM. As for `Cc1cc(F)ccc1S(=O)(=O)N1CC(CO)(COc2ccc(C#N)c(F)c2)C1` [Compound 77, 2-Fluoro-4-((1-((4-fluoro-2-methylphenyl)sulfonyl)-3-(hydroxymethyl)azetidin-3-yl)methoxy)benzonitrile], the figure is over 2500 nM; as for `N#Cc1ccc(OCC2(CO)CN(S(=O)(=O)c3ccc(Cl)cc3F)C2)cc1F` [Compound 78, 4-((1-((4-Chloro-2-fluorophenyl)sulfonyl)-3-(hydroxymethyl)azetidin-3-yl)methoxy)-2-fluorobenzonitrile], 100 to 500 nM; as for `Cc1cc(C#N)ccc1S(=O)(=O)N1CC(CO)(COc2ccc(C#N)c(F)c2)C1` [Compound 79, 4-((1-((4-Cyano-2-methylphenyl)sulfonyl)-3-(hydroxymethyl)azetidin-3-yl)methoxy)-2-fluorobenzonitrile], over 1300 nM. Consider `COC(=O)c1ccc(S(=O)(=O)N2CC(CO)(COc3ccc(C#N)c(F)c3)C2)c(Cl)c1` [Compound 80, Methyl 3-chloro-4-((3-((4-cyano-3-fluorophenoxy)methyl)-3-(hydroxymethyl)azetidin-1-yl)sulfonyl)benzoate], for which the IC50 was over 850 nM.

Usually IC50 stands for the point on the concentration scale where inhibition reaches its midpoint.
